Consider three compounds from patent US12616700B2, “Therapeutic regimen” (Novartis AG, priority 2017, dated 2026).

In data set [1] the test system is P. vivax or P. falciparum. Conditions: cited from earlier work.
The test system of data set [2] is drug-sensitive and a broad panel of drug resistant malaria strains. Particulars: cited from earlier work.
The subject of another data set is liver hypnozoites. Conditions: cited from earlier work.
For the next data set, the system named is P. vivax. Conditions: in vitro; cited from earlier work.
For another data set, the system named is Plasmodium. Conditions: causal prophylactic protection in animal infection models; cited from earlier work.
The nature of data set [3]: Dog study of lumefantrine-SDF and KAF156 alone and co-dosed (Example 6). The class given is in vivo. Particulars: for Cmax / AUC(0-inf) / AUC(0-t) / half-life / Tmax: po, 100 mg; for AUC(0-inf): read-out: AUCinf, Mean; for AUC(0-t): read-out: AUClast, Mean; for half-life: read-out: T½, Mean (converted). The procedure: The study design is described in the table below. To stimulate gastric secretion, each animal (dog) received a single 6-μg/kg intramuscular injection of pentagastrin approximatively 60 minutes prior to test article administration. Washout between each treatment was approximatively 7-8 days. [table]

A further data set relates to P. falciparum. Particulars: in vitro; cited from earlier work.
For data set [4] the following is noted: cited from earlier work.
The format of data set [5] is in vitro ADME. The procedure:
Lumefantrine concentration was determined by a validated Liquid chromatography-Mass spectrometry (LC-MS/MS) method with a Lower Limit of Quantification (LLOQ) of 50 ng/mL. Briefly, the bioanalytical method consisted of protein precipitation followed by solid phase extraction of human plasma samples and analysis of diluted samples by LC-MS/MS in Multiple Reaction Monitoring (MRM) positive mode using Electrospray Ionization (ESI) as the ionization technique. The lower and upper limits of quantification for linear range were 50.0 ng/mL and 20000 ng/mL respectively using […] of human plasma. Lumefantrine in human plasma is stable for 44 hours at room temperature; 9 months at ≤−70° C.; 3 freeze/thaw cycles at ≤−70° C. The extract is stable for 100 hours in an autosampler at 8° C. The stability data could cover the period from sampling to analysis of all study samples. For eight points calibration concentrations (50, 100, 200, 500, 2000, 5000, 16000 and 20000 ng/mL) bias was within the range of 15.0% at all concentrations except for LLOQ (50 ng/mL) for which it was within the range of 20.0%. For quality control samples (150 ng/mL, 2500 ng/mL and 15000 ng/mL) bias was within the range of 15.0% for at least ⅔ of the individual values.

Setting [6] is: P. falciparum malaria, multiple-dose cohort.
Setting [7] is: Dog 3 (emesis after dosing in Phase 5).
[8] abbreviates: dog, in vivo, Phase 2 (Combo), dog.
[9] abbreviates: dog, in vivo, Phase 5 (Mono), dog.

Read-outs that look alike come from different tables or passages of the source.

What is called Cmax is the maximum level reached in the sampled fluid or tissue. As usually defined, the Tmax is the time from dosing to the highest level.

For the compound `CC1(C)c2nc(-c3ccc(F)cc3)c(Nc3ccc(F)cc3)n2CCN1C(=O)CN` [KAF156, 2-amino-1-(2-(4-fluorophenyl)-3-(4-fluorophenylamino)-8,8-dimethyl-5,6-dihydroimidazo[1,2-a]pyrazin-7(8H)-yl)ethanone], the serious adverse events result in data set [1] (400 mg/day for 3 days or single 800 mg) is reported as “No serious adverse event was reported”. Moreover, the “patients who reported nausea” value in data set [1] (setting [6]) is recorded as 1 patient; in data set [1] (single 800-mg dose), “Four”. The patients who vomited in data set [1] (setting [6]) is listed as 1 patient; in data set [1] (single 800-mg dose, besides one withdrawn for repeated vomiting), “Five”. Further, the “activity against vivax and falciparum malaria, including artemisinin-resistant parasites” value in data set [1] (malaria patients) was “has activity”. The half-life entry is “about 50 hours” in data set [1] (malaria patients); 31 h in data set [3] (dog, in vivo, Phase 2 (Combo), with Lumefantrine-SDF sachet, dog); 33.2 h in data set [3] (setting [9]). In addition, the “potency against drug-sensitive versus drug resistant malaria strains” value in data set [2] was “equally potent”. Further, the “activity against liver hypnozoites” value in the data set on liver hypnozoites is recorded as “has not demonstrated activity”. Also, the “EC50, erythrocytic replication life cycle stages (blood stages)” value in the data set on P. vivax and in the data set with P. falciparum was “low nanomolar” throughout. Further, the “activity in liver stage models of Plasmodium infection” value in the data set with Plasmodium was “has shown activity”. The “AUCinf Ratio (Phase 2:Phase 5)” value in data set [3] (Dog 1) is 2.6; in data set [3] (Dog 2) it was 2.8; in data set [3] (setting [7]), 5.3; in data set [3] (Mean), 3.6. In addition, the “AUClast Ratio (Phase 2:Phase 5)” value turned out to be 2.7 in data set [3] (Dog 1), 2.9 in [3] (Dog 2), 5.2 in data set [3] (setting [7]) and 3.6 in data set [3] (Mean). Besides, the “Cmax Ratio (Phase 2:Phase 5)” value stood at 2.6 in data set [3] (Dog 1), 2.5 in [3] (Dog 2), 3.3 in data set [3] (setting [7]) and 2.8 in data set [3] (Mean). Also, the highest concentration (Cmax) came to 1200 ng/mL in data set [3] (dog, in vivo, Phase 2 (Combo)) and 451 ng/mL in data set [3] (dog, in vivo, Phase 5 (Mono)). Besides, the AUC(0-inf) in data set [3] (setting [8]) stood at 45400 ng·h/mL; in data set [3] (setting [9]), 14400 ng·h/mL. Also, the values for the AUC(0-t) in data set [3] (setting [8]) and in data set [3] (setting [9]) were 36700 ng·h/mL and 11600 ng·h/mL, respectively. Moreover, the Tmax was determined as 3.3 h in data set [3] (dog, in vivo, Phase 2 (Combo), Tmax 1, 1, 8 hr in 3 dogs) and 1 h in data set [3] (dog, in vivo, Phase 5 (Mono)).

As to `CCCCN(CCCC)CC(O)c1cc(Cl)cc2c1-c1ccc(Cl)cc1/C2=C/c1ccc(Cl)cc1` (stereo not drawn) [Lumefantrine, lumefantrine], in data set [4] (in vivo), the “increase of bioavailability by food” value is listed as “up to 16 fold”. The “increase of lumefantrine exposure when administered together with KAF156” value in data set [3] (dog, in vivo) was “around 1.5 fold”. Further, the “stability of the extract” value in data set [5] (human, 100 hours) was 100 h. The “stability in human plasma” value in data set [5] (plasma, 44 hours) stood at 44 h.

Take `CO[C@H]1O[C@@H]2O[C@@]3(C)CC[C@H]4[C@H](C)CC[C@@H]([C@H]1C)[C@@]24OO3` [artemether]: the “increase of bioavailability by food” value in data set [4] (Coartem administered with high fat food) was “up to 3 fold”.
